The values that follow come from the supplement of paper PMC4862054.

“And” between values parts separate entries of the source, which are not always exact repeats. Equal values may be shown once.

Holding throughout (assay): normalised viability (% of control), CellTiter-Blue; higher = more viable cells (about 100 = DMSO control)
Holding throughout (conditions): incubation time: 72 h

Test [1] relates to CAL-148. The method, then: (§1)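 DSRT, CellTiter-Blue viability, 72 h incubation. Signal is normalised to DMSO and benzethonium chloride controls. Value is the normalised response at dose 8.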
Test [2] relates to CAL-51. On the procedure: as §1
The subject of test [3] is CAL-85-1. The method, then: as §1
Test [4] has as its system DU-4475. The method, then:
as §1

For test [5], the system named is HDQ-P1. The method, then:
as §1

The test system of test [6] is MDA-MB-453. On the procedure: as §1
For test [7], the system named is CAL-148. The method, then: (§2)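 DSRT, CellTiter-Blue viability, 72 h incubation. Signal is normalised to DMSO and benzethonium chloride controls. Value is the normalised response at dose 6.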
The source holds these as a separate data set.

In test [8] the test system is CAL-51. On the procedure: as §2
The source holds these as a separate data set.

The test system of test [9] is CAL-85-1. The method, then: as §2
The source holds these as a separate data set.

The subject of test [10] is DU-4475. On the procedure: as §2
This is another data set of the same source.

In test [11] the test system is HDQ-P1. The method, then: as §2
The source holds these as a separate data set.

Test [12] relates to MDA-MB-453. The method, then: as §2
The source holds these as a separate data set.

In test [13] the test system is CAL-148. On the procedure:
(§3)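 DSRT, CellTiter-Blue viability, 72 h incubation. Signal is normalised to DMSO and benzethonium chloride controls. Value is the normalised response at dose 9.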
This is another data set of the same source.

In test [14] the test system is CAL-51. The method, then: as §3
This is another data set of the same source.

The test system of test [15] is CAL-85-1. On the procedure: as §3
The source holds these as a separate data set.

Test [16] has as its system DU-4475. The method, then: as §3
This is another data set of the same source.

The subject of test [17] is MDA-MB-453. On the procedure:
as §3
This is another data set of the same source.

Take `O=C(c1ccc(OCCN2CCCCC2)cc1)c1c(-c2ccc(O)cc2)sc2cc(O)ccc12` [Raloxifene] (3000 nM): the normalised viability in the test with CAL-148 [1] stood at 109%; in the test with CAL-51 [2], 101%; with CAL-85-1 [3] it was 94.3%; in the test with DU-4475 [4], 121%; in the test on HDQ-P1 [5] it was 89.1%; in the test with MDA-MB-453 [6], 91.9%.
`CC(C)C[C@H](NC(=O)[C@H](Cc1ccccc1)NC(=O)c1cnccn1)B(O)O` [Bortezomib] (300 nM): the normalised viability in the test with CAL-148 [1] turned out to be 9.74%; in the test on CAL-51 [2], 1.35%; in the test on CAL-85-1 [3] it was 2.25%; with DU-4475 [4], 0.52%; in the test on HDQ-P1 [5], 1.48%; with MDA-MB-453 [6], 19.3%.
Regarding `O=c1[nH]c(=O)n([C@H]2C[C@H](O)[C@@H](CO)O2)cc1F` [Floxuridine] (3000 nM), the normalised viability in the test with CAL-148 [1] was found to be 44.8%; in the test with CAL-51 [2], 22.8%; in the test on CAL-85-1 [3], 42.9%; in the test with DU-4475 [4], 97.9%; in the test with HDQ-P1 [5], 80.1%; in the test on MDA-MB-453 [6], 71.8%.
Regarding `CCCC(CCC)C(=O)O` [Valproic acid] (300 nM), the normalised viability in the test on CAL-148 [7] came to 103%; with CAL-51 [8] it was 103%; in the test with CAL-85-1 [9] it was 90%; in the test with DU-4475 [10] it was 83.7%; in the test with HDQ-P1 [11], 112%; in the test on MDA-MB-453 [12], 103%.
Consider `CS(=O)(=O)CCNCc1ccc(-c2ccc3ncnc(Nc4ccc(OCc5cccc(F)c5)c(Cl)c4)c3c2)o1` [Lapatinib] (3000 nM), for which the normalised viability in the test on CAL-148 [1] was 80.7% and 87.1%; with CAL-51 [2], 107% and 96.5%; with CAL-85-1 [3] it was 52.1% and 54.6%; in the test on DU-4475 [4], 117% and 105%; in the test with HDQ-P1 [5], 84.5% and 104%; with MDA-MB-453 [6], 33.4% and 38.4%.
As for `COC(=O)C[C@](O)(CCCC(C)(C)O)C(=O)O[C@@H]1C(OC)=C[C@]23CCCN2CCc2cc4c(cc2[C@H]13)OCO4` [Omacetaxine mepesuccinate] (3000 nM), the normalised viability came out at 5.63% in the test on CAL-148 [1]; 5.99% in the test on CAL-51 [2]; 2% in the test on CAL-85-1 [3]; 3.79% with DU-4475 [4]; 13.4% with HDQ-P1 [5]; 5.64% with MDA-MB-453 [6].
As to `COc1ccc(C2=N[C@@H](c3ccc(Cl)cc3)[C@@H](c3ccc(Cl)cc3)N2C(=O)N2CCNC(=O)C2)c(OC(C)C)c1` [Nutlin-3] (3000 nM), the normalised viability in the test on CAL-148 [1] is 72.6%; in the test on CAL-51 [2], 73%; in the test on CAL-85-1 [3], 101%; with DU-4475 [4], 67.5%; with HDQ-P1 [5], 120%; in the test on MDA-MB-453 [6], 83.9%.
On to `C#Cc1cccc(Nc2ncnc3cc(OC)c(OCCCCCCC(=O)NO)cc23)c1` [CUDC-101] (300 nM), for which the normalised viability in the test with CAL-148 [7] turned out to be 81.9%; with CAL-51 [8], 105%; with CAL-85-1 [9], 64.1%; with DU-4475 [10], 75.1%; in the test with HDQ-P1 [11], 38.8%; with MDA-MB-453 [12], 46%.
For `CCS(=O)(=O)c1cccc(-c2cc(C(=O)NC3CCN(C)CC3)c(C)c3[nH]c4ncc(C)cc4c23)c1` [TAK-901] (300 nM), the normalised viability in the test on CAL-148 [1] is 74%; with CAL-51 [2], 42.5%; with CAL-85-1 [3], 53.2%; with DU-4475 [4], 76.5%; in the test on HDQ-P1 [5] it was 49.2%; in the test on MDA-MB-453 [6], 60%.
Take `COc1ncc(-c2ccc3nccc(-c4ccnnc4)c3c2)cc1NS(=O)(=O)c1ccc(F)cc1F` (30 nM): the normalised viability amounted to 43.7% in the test on CAL-148 [7]; 33.1% in the test with CAL-51 [8]; 50.4% in the test on CAL-85-1 [9]; 63.6% with DU-4475 [10]; 30.4% in the test on HDQ-P1 [11]; 12.1% with MDA-MB-453 [12].
Take `COC(=O)C[C@](O)(CCCC(C)(C)O)C(=O)O[C@@H]1C(OC)=C[C@]23CCCN2CCc2cc4c(cc2[C@H]13)OCO4` [Omacetaxine mepesuccinate] (300 nM): the normalised viability in the test with CAL-148 [7] is 13.5%; in the test on CAL-51 [8], 7.35%; in the test with CAL-85-1 [9], 4.19%; in the test on DU-4475 [10] it was 9.29%; with HDQ-P1 [11], 10.2%; in the test on MDA-MB-453 [12] it was 20.1%.
Regarding `CS(=O)(=O)OCCCCOS(C)(=O)=O` [Busulfan] (30000 nM), the normalised viability was determined as 107% in the test on CAL-148 [1]; 100% in the test on CAL-51 [2]; 96.5% in the test with CAL-85-1 [3]; 91% in the test with DU-4475 [4]; 102% in the test on HDQ-P1 [5]; 117% with MDA-MB-453 [6].
Turning to `O=c1[nH]cc(F)c(=O)[nH]1` [Fluorouracil] (300 nM), the normalised viability with CAL-148 [7] is 96.7%; with CAL-51 [8], 101%; in the test with CAL-85-1 [9] it was 87.2%; in the test on DU-4475 [10], 102%; in the test with HDQ-P1 [11], 87.2%; in the test on MDA-MB-453 [12], 85.7%.
As to `COC1=C2C[C@@H](C)C[C@H](OC)[C@H](O)[C@@H](C)/C=C(\C)[C@H](OC(N)=O)[C@@H](OC)/C=C\C=C(/C)C(=O)NC(=CC1=O)C2=O` [Geldanamycin] (3000 nM), the normalised viability with CAL-148 [1] was 10.8%; with CAL-51 [2] it was 8.15%; in the test with CAL-85-1 [3], 11.6%; in the test on DU-4475 [4], -0.3%; with HDQ-P1 [5] it was 16.7%; in the test on MDA-MB-453 [6] it was 8.03%.
`CC(=O)O[C@H]1C(=O)[C@@]2(C)[C@H]([C@H](OC(=O)c3ccccc3)[C@]3(O)C[C@H](OC(=O)[C@H](O)[C@@H](NC(=O)c4ccccc4)c4ccccc4)C(C)=C1C3(C)C)[C@]1(OC(C)=O)CO[C@@H]1C[C@@H]2O` [Paclitaxel] (300 nM): the normalised viability came out at 16.1% with CAL-148 [1]; 20.6% in the test with CAL-51 [2]; 25.5% in the test on CAL-85-1 [3]; 16.9% with DU-4475 [4]; 26.6% with HDQ-P1 [5]; 24.7% in the test on MDA-MB-453 [6].
As to `COC1=C2C[C@@H](C)C[C@H](OC)[C@H](O)[C@@H](C)/C=C(\C)[C@H](OC(N)=O)[C@@H](OC)/C=C\C=C(/C)C(=O)NC(=CC1=O)C2=O` [Geldanamycin] (300 nM), the normalised viability in the test with CAL-148 [7] is 28.9%; with CAL-51 [8], 74.5%; in the test on CAL-85-1 [9], 47.7%; with DU-4475 [10], 0.05%; in the test on HDQ-P1 [11], 46.5%; in the test on MDA-MB-453 [12], 6.01%.
For `Cn1cnc2c(F)c(Nc3ccc(Br)cc3F)c(C(=O)NOCCO)cc21` [MEK-162] (300 nM), the normalised viability with CAL-148 [1] was 87.1%; in the test with CAL-51 [2], 90%; in the test on CAL-85-1 [3], 86.7%; with DU-4475 [4] it was 4.15%; in the test on HDQ-P1 [5], 95.6%; in the test on MDA-MB-453 [6], 136%.
On to `Cn1c(=O)c(F)c(Nc2ccc(I)cc2F)c2c(=O)n(C[C@@H](O)CO)cnc21` [TAK-733] (30 nM), for which the normalised viability turned out to be 98.7% in the test with CAL-148 [7]; 89.7% in the test on CAL-51 [8]; 84.5% in the test on CAL-85-1 [9]; 1.81% in the test with DU-4475 [10]; 77.7% with HDQ-P1 [11]; 112% with MDA-MB-453 [12].
In the case of `CS(=O)(=O)CCNCc1ccc(-c2ccc3ncnc(Nc4ccc(OCc5cccc(F)c5)c(Cl)c4)c3c2)o1` [Lapatinib] (10000 nM), the normalised viability in the test on CAL-148 [13] is 60.4% and 65.6%; in the test on CAL-51 [14], 90% and 94.5%; with CAL-85-1 [15] it was 30% and 39.3%; in the test with DU-4475 [16], 117% and 99.2%; in the test on MDA-MB-453 [17], 20.9% and 28.7%.
With `Cn1c(=O)c(F)c(Nc2ccc(I)cc2F)c2c(=O)n(C[C@@H](O)CO)cnc21` [TAK-733] (300 nM), the normalised viability in the test on CAL-148 [1] came to 77.9%; in the test on CAL-51 [2] it was 76.7%; with CAL-85-1 [3] it was 53.5%; with DU-4475 [4], 0.88%; in the test on HDQ-P1 [5], 63.6%; with MDA-MB-453 [6], 70.8%.
